Patent EP3097904A1, “DEPIGMENTING AGENTS TO LIGHTEN THE SKIN” (priority 2015, dated 2016)

How the values were obtained:
[1] = test system: Tyrosinase; assay: Tyrosinase activity in lysates of treated melanocytes (L-DOPA oxidation); type: cell-based, murine; details: 48 hours; PBPE 20 µM, tesmilifene 10 µM, umbelliprenin 40 µM; cell lysate, percentage of control (Figure 6)
Method: Tyrosinase activity was measured using a previously reported procedure (Ando H, J. Lipid Res., 1999, 40, p. 1312). […] The cell pellet was washed twice with phosphate buffer saline, transferred in an Eppendorf vial and centrifuged at 5000 g for 5 minutes at 4°C. The supernatant was discarded. Cell lysis was performed with an aqueous solution of sodium deoxycholate 0.5% (1 mL per cell pellet). The suspension was incubated at 0°C for 15 minutes and then 3 mL of a freshly prepared solution of L-DOPA (0.1% w/w) in phosphate buffer at 0.1 M (pH 6.8) was added to the cell lysate. The mixture was incubated at 37°C for 10 min. Tyrosinase activity was measured with a spectrophotometer to quantify the oxidation of L-DOPA to DOPAchrome. The absorbance was measured at 475 nm. The tyrosinase activity was expressed as a percentage of control (=100%). Control corresponds to the tyrosinase activity measured in the cell lysate from normal murine melanocytes treated with carrier solvent. Melanin content of treated murine melanocytes was also measured as described in example 4.

[2] = test system: normal murine melanocytes treated with alpha melanocyte stimulating hormone (α-MSH); assay: Melanin content in melanocytes treated with α-MSH; type: cell-based; details: 48 hours, α-MSH 100 nM; PBPE 20 µM, tesmilifene 10 µM, umbelliprenin 40 µM (Figure 3)
Method: (§1) Normal murine melanocytes were seeded and treated for 48 hours with increasing doses of umbelliprenin, 100µM of kojic acid (KA) or carrier solvent (DMSO). […] The cell pellet was washed twice with phosphate buffer saline, transferred in an Eppendorf vial and centrifuged at 5000 g for 5 minutes at 4°C. The supernatant was discarded. 200 µL of water and 1 mL of EtOH/Ether (1/1) were added to precipitate melanin. The mixture was incubated for 15 minutes at room temperature, centrifuged at 5000 g for 5 minutes and the supernatant was discarded. The precipitate was solubilized by 300 µL of a mixture of aqueous sodium hydroxide (1 M)/DMSO 90/10 after heating at 80°C for 1 hour. The absorbance was measured at 405 nm. The melanin content was expressed as a percentage of control (=100%).

[3] = test system: melanogenic genes (Tyrosinase, Mitf, TRP-1 and TRP-2); assay: Expression of genes encoding melanogenic proteins (RT-qPCR); type: cell-based, murine; details: 48 hours; PBPE 20 µM, tesmilifene 10 µM, umbelliprenin 40 µM (Figure 8)
Method: We then performed RNA extraction. We added Trizol® (1 ml) on treated cells. After incubation (5 minutes at room temperature), we transferred the cells suspension into Eppendorf vial. Chloroform (200 µl at 4°C) was added, the mixture was manually stirred for 15 seconds, incubated for 5 minutes at room temperature and then centrifuged at 16000 g for 10 minutes at 4°C. Aqueous colorless layer was collected and isopropanol (500 µL at -20°C) was added. The mixture was manually stirred for 15 seconds, incubated for 15 minutes at room temperature and the centrifuged at 16200 g for 10 minutes at 4°C. The supernatant was discarded and the precipitate was washed with 1 mL of EtOH/H2O (3/1) at -20°C. The mixture was centrifuged at 16000 g for 10 minutes at 4°C, the supernatant discarded and the pellet was allowed to dry for 10 minutes at room temperature. The pellet was dissolved in RNAse-free water (30 µL). The amount and purity of RNA was determined by measuring the absorbance at 230, 260 and 280 nm with a nanodrop ND-1000 spectrophotometer (Thermo Scientific) according to the manufacturer's instructions.
We then performed RT-qPCR experiment. We prepared a mixture containing RNA (1 µg), reverse transcriptase (1 µL), the reaction mixture « iScript®5x » (4 µL) and RNAse-free water (qsp 20 µl). The mixture was vortexed, centrifuged for few seconds and then introduced into a thermocycler. Reverse transcription was performed using the following program : 5 min at 25°C, 30 min at 42°C and then 5 min at 85°C. Eppendorf vial was maintained at 4°C until the beginning of the qPCR experiment. We then examined the expression of melanogenic genes (Tyrosinase, Mitf, TRP-1 and TRP-2) and housekeeping genes (glyceraldehyde 3-phosphate dehydrogenase and Cyclophiline A1) by qPCR. For this purpose, cDNA was diluted with RNAse-free water (180 µL) and then we prepared a mixture containing: primers, Syber Green® and RNAse-free water. We mixed in a 96-well plate cDNA (5 µL) and the mixture (20 µL). […]

[4] = test system: normal murine melanocytes exposed to ultraviolet (UV-B) irradiation; assay: Melanin content in melanocytes exposed to UV-B irradiation; type: cell-based; details: UV-B 20 mJ/cm^2; PBPE 20 µM, tesmilifene 10 µM, umbelliprenin 40 µM (Figure 4)
Method: as §1

[5] = test system: normal murine melanocytes; assay: Cytotoxicity, trypan blue cell viability; details: 24, 48 and 72 hours; PBPE 20 µM, tesmilifene 10 µM, umbelliprenin 40 µM (Figure 9)
Method: Normal murine melanocytes were seeded and treated for 24, 48 and 72 hours with PBPE (20 µM), tesmilifene (10 µM), umbelliprenin (40 µM) or carrier solvent (DMSO for umbelliprenin and ethanol for tesmilifene or PBPE). Cells were detached by trypsinization, collected in phosphate buffer saline and centrifuged at 1500 rpm for 5 minutes at 4°C. Cells pellets were resuspended in the trypan blue solution (0.25%, w/v in PBS) and counted in a Malassez cell under a light microscope. The percentage of cell viability was calculated using the following formula: % cell viability = [1-(blue cells/total cells)] x 100 [formula]

[6] = test system: normal murine melanocytes; assay: Melanin content in normal murine melanocytes (basal); type: cell-based; details: 48 hours; for melanin content: increasing doses, expressed as percentage of control (Figures 1, 2)
Method: as §1
Normal murine melanocytes were seeded and treated for 48 hours with increasing doses of PBPE, tesmilifene (Tes) or carrier solvent (ethanol).
Normal murine melanocytes were seeded and treated for 48 hours with fixed doses of PBPE, tesmilifene, umbelliprenin or a combination of those, or carrier solvent (DMSO for umbelliprenin, ethanol for tesmilifene or PBPE and EtOH/DMSO 1/1 for the combination).
The cell pellet was washed twice with phosphate buffer saline, transferred in an Eppendorf vial and centrifuged at 5000 g for 5 minutes at 4°C. The supernatant was discarded. Cell lysis was performed with an aqueous solution of sodium deoxycholate 0.5% (1 mL per cell pellet). The suspension was incubated at 0°C for 15 minutes and then 3 mL of a freshly prepared solution of L-DOPA (0.1% w/w) in phosphate buffer at 0.1 M (pH 6.8) was added to the cell lysate. The mixture was incubated at 37°C for 10 min. Tyrosinase activity was measured with a spectrophotometer to quantify the oxidation of L-DOPA to DOPAchrome. The absorbance was measured at 475 nm. The tyrosinase activity was expressed as a percentage of control (=100%). Control corresponds to the tyrosinase activity measured in the cell lysate from normal murine melanocytes treated with carrier solvent.

[7] = test system: normal murine melanocytes; assay: Whitening effect on melanocyte cell pellet (photograph); type: cell-based; details: umbelliprenin 40 µM, 48 hours (Figure 7)
Method: Normal murine melanocytes were seeded and treated for 48 hours with umbelliprenin (40 µM) or carrier solvent (DMSO). […] Cells pellet was washed with phosphate buffer saline, centrifuged and the supernatant was discarded. Cell pellets were then photographed.

[8] = PBPE 20 µM, tesmilifene 10 µM, umbelliprenin 40 µM vs kojic acid 100 µM (Figure 6)

SMILES	tyrosinase activity [1]	melanin content in presence of α-MSH [2]	expression of melanogenic genes [3]	melanin content after UV-B irradiation [4]	cell viability [5]	melanin content [6]	diminution of melanin content compared with kojic acid [6, 8]	appearance of melanocytes (cell pellet) versus carrier solvent [7]	diminution of melanin content compared with kojic acid ([6]; increasing doses of umbelliprenin vs 100µM kojic acid (Figure 1))
c1ccc(Cc2ccc(OCCN3CCCC3)cc2)cc1 [PBPE]	decrease tyrosinase activity levels	inhibits the melanogenic effect of α-MSH	this effect was not observed	inhibits the melanogenic effect of UV-B	no significant impact	significantly decrease melanin content in a dose dependent manner	higher	–	–
CCN(CC)CCOc1ccc(Cc2ccccc2)cc1 [tesmilifene]	decrease tyrosinase activity levels	inhibits the melanogenic effect of α-MSH	this effect was not observed	inhibits the melanogenic effect of UV-B	–	significantly decrease melanin content in a dose dependent manner	higher	–	–
CC(C)=CCC/C(C)=C/CC/C(C)=C/COc1ccc2ccc(=O)oc2c1 [umbelliprenin]	decrease tyrosinase activity levels	inhibits the melanogenic effect of α-MSH	significantly repressed	inhibits the melanogenic effect of UV-B	–	significantly decreases melanin content in a dose dependent manner	higher	much lighter	higher
